Assay results: US9718790B2, “Triazine derivative and pharmaceutical composition having an analgesic activity comprising the same” (SHIONOGI & CO., LTD., priority 2010, dated 2017)

Biological target: human P2X3 receptor (Homo sapiens (Human), UniProt P56373)
Test: Evaluation of human P2X3 receptor inhibitory activity (Fluo-3 calcium fluorescence, FDSS 3000, ATP stimulation);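 further: stimulus was 50 nM ATP with fluorescence followed for 3 min, and the response per well was peak post-ATP fluorescence divided by the reading at measurement start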
Assay type: cell-based
Settings: C6BU-1 cells stably expressing human P2X3 receptor

Sequence of human P2X3 receptor (P56373 whole entry): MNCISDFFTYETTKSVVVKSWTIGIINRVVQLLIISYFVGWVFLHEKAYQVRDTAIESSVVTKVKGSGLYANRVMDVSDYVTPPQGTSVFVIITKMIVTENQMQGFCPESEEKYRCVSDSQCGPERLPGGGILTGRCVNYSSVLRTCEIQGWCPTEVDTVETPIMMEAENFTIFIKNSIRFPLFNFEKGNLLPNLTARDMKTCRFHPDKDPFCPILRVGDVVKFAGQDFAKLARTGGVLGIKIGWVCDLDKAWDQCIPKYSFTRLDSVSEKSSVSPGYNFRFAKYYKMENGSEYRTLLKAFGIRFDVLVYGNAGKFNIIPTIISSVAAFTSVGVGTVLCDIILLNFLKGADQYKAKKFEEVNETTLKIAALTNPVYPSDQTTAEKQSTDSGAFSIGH

Going from `CCn1c(=O)[nH]/c(=N\c2ccc(Oc3cccc(C(=O)OC)n3)cc2)n(Cc2ccc(C)cc2)c1=O` [Compound I-2180] to `CCn1c(=O)[nH]/c(=N\c2ccc(Oc3cccc(C(N)=O)c3)cc2)n(Cc2ccc(Cl)cc2)c1=O` [Compound I-1925], the IC50 falls from 11 nM to 6 nM (1.8-fold).

`CCn1c(=O)[nH]/c(=N\c2ccc(Oc3cncc(C(=O)OC)c3)cc2)n(CC2CCC(C)(C)CC2)c1=O` [Compound I-2204] and `COC(=O)[C@@H](C)Cn1c(=O)[nH]/c(=N\c2cnc(OC3CCC3)c(C)c2)n(Cc2ccc(C)cc2)c1=O` [Compound I-1478] are within 1.5-fold of each other in IC50: 28 nM for the first, 19 nM for the second.

Going from `Cc1ccc(Cn2c(=O)n(C[C@H](C)C(=O)O)c(=O)[nH]/c2=N\c2ccc(NS(C)(=O)=O)cc2)cc1` [Compound I-1417] to `COC(=O)[C@@H](C)Cn1c(=O)[nH]/c(=N\c2ccc(NC(C)=O)cc2)n(Cc2ccc(C)cc2)c1=O` [Compound I-1415], the IC50 rises from 207 nM to 532 nM (2.6-fold).

Compared with `COC(=O)[C@H](C)[C@H](C)n1c(=O)[nH]/c(=N\c2ccc(N3CCCCC3)cc2)n(Cc2ccc(Cl)cc2)c1=O` [Compound I-1380], `COCCOc1ccc(/N=c2\[nH]c(=O)n(C[C@H](C)C(=O)OC)c(=O)n2Cc2ccc(Cl)cc2)cc1` [Compound I-0745] is 4.8-fold higher in IC50: 26 nM for the first, 125 nM for the second.

First: COC(=O)C(C)(C)n1c(=O)[nH]/c(=N\c2ccc(OC(C)C)c(Cl)c2)n(Cc2ccc(Cl)cc2)c1=O [Compound I-0640]
Second: CNC(=O)CCCn1c(=O)[nH]/c(=N\c2ccc(OC(C)C)c(C)c2)n(Cc2ccc(Cl)cc2)c1=O [Compound I-0786]
The IC50 of the first is 3-fold lower: 5 nM for the first, 15 nM for the second.

Going from `CCOC(=O)c1cc(Cn2c(=O)[nH]/c(=N\c3ccc(OC(C)C)c(C)c3)n(Cc3ccc(Cl)cc3)c2=O)on1` [Compound I-0784] to `COc1ncccc1Cn1c(=O)[nH]/c(=N\c2ccc(OC(C)C)c(F)c2)n(Cc2ccc(Cl)cc2)c1=O` [Compound I-0683], the IC50 falls from 22 nM to 9 nM (2.4-fold). The second is the more potent here.

`Cc1ccc(Cn2c(=O)n(C[C@H](C)C(=O)O)c(=O)[nH]/c2=N\c2cnc(OC3CCC3)c(Cl)c2)cc1` [Compound I-1410] and `C[C@@H](Cn1c(=O)[nH]/c(=N\c2cnc(OC3CCC3)c(Cl)c2)n(Cc2ccc(Cl)cc2)c1=O)C(=O)O` [Compound I-1411] are within 1.5-fold of each other in IC50: 56 nM for the first, 58 nM for the second.

Going from `C[C@@H](Oc1ccc(/N=c2\[nH]c(=O)n(CC(N)=O)c(=O)n2Cc2ccc(Cl)cc2)cc1)C(F)(F)F` [Compound I-1959] to `COCCOc1ccc(/N=c2\[nH]c(=O)n(C[C@H](C)C(=O)O)c(=O)n2Cc2ccc(Cl)cc2)cc1` [Compound I-0748], the IC50 rises from 65 nM to 295 nM (4.5-fold). The first is the more potent here.

`Cc1ccc(Cn2c(=O)n(C[C@H](C)C(=O)O)c(=O)[nH]/c2=N\c2ccc3nc(C)ccc3c2)cc1` [Compound I-1278] and `COC(=O)[C@@H](C)Cn1c(=O)[nH]/c(=N\c2cnc(OC3CCC3)c(Cl)c2)n(Cc2ccc(C)cc2)c1=O` [Compound I-1398] are within 1.5-fold of each other in IC50: 33 nM for the first, 25 nM for the second.

`CCn1c(=O)[nH]/c(=N\c2ccc(Oc3ccc(-c4ncn[nH]4)cc3)cc2)n(Cc2ccc(Cl)cc2)c1=O` [Compound I-1973] was tested, and the IC50 was 2 nM.

Same assay, conditions: C6BU-1 cells stably expressing human P2X3 receptor, Fluo-3 fluorescence, FDSS 3000

Going from `CCc1nc2ccc(/N=c3\[nH]c(=O)n(CCC#N)c(=O)n3Cc3ccc(Cl)cc3)cc2s1` [Compound I-1769] to `Cc1ccc(Cn2c(=O)n(CCC(N)=O)c(=O)[nH]/c2=N\c2ccc3nc(C)sc3c2)cc1` [Compound I-1671], the IC50 rises from 3 nM to 6 nM (2-fold). The first is the more potent here.

`CCCc1ccc(Cn2c(=O)n(C[C@H](C)C(=O)OC)c(=O)[nH]/c2=N\c2ccc(OC(C)C)cc2)cc1` [Compound I-1144] and `C/C=C\c1ccc(Cn2c(=O)n(C[C@H](C)C(=O)OC)c(=O)[nH]/c2=N\c2ccc(OC(C)C)cc2)cc1` [Compound I-1142] are within 1.5-fold of each other in IC50: 764 nM for the first, 802 nM for the second.

Compared with `CCCOc1ccc(/N=c2\[nH]c(=O)n(C[C@@H](CC)C(=O)O)c(=O)n2Cc2ccc(Cl)cc2)cc1` [Compound I-1039], `CCC[C@@H](C)Oc1ccc(/N=c2\[nH]c(=O)n(C[C@H](C)C(=O)OC)c(=O)n2Cc2ccc(C)cc2)cc1` [Compound I-1047] is 1.9-fold higher in IC50: 83 nM for the first, 154 nM for the second.

First: CCOc1ccc(/N=c2\[nH]c(=O)n(C[C@H](C)C(=O)OC)c(=O)n2Cc2ccc(C)cc2)cc1Br [Compound I-1173]
Second: COC(=O)[C@@H](C)Cn1c(=O)[nH]/c(=N\c2ccc(OC(C)C)c(C#N)c2)n(Cc2ccc(C)cc2)c1=O [Compound I-0951]
The IC50 of the first is 3.7-fold lower: 9 nM for the first, 33 nM for the second.

`COC(=O)[C@@H](C)Cn1c(=O)[nH]/c(=N\c2ccc(Oc3cccnc3)cc2)n(Cc2ccc(C)cc2)c1=O` [Compound I-1126] and `CCn1c(=O)[nH]/c(=N\c2ccc(Oc3ccc(NC(C)=O)cc3)cc2)n(Cc2ccc(Cl)cc2)c1=O` [Compound I-1871] are within 1.5-fold of each other in IC50: 8 nM for the first, 6 nM for the second.

`C[C@@H](C(=O)O)[C@H](C)n1c(=O)[nH]/c(=N\c2ccc3cc(Br)ccc3c2)n(Cc2ccc(Cl)cc2)c1=O` [Compound I-1832] and `COC(=O)[C@@H](C)Cn1c(=O)[nH]/c(=N\c2ccc(CC(C)C)c(C)c2)n(Cc2ccc(Cl)cc2)c1=O` [Compound I-0947] are within 1.5-fold of each other in IC50: 32 nM for the first, 24 nM for the second.

Going from `CC[C@@H](C)Oc1ccc(/N=c2\[nH]c(=O)n(C[C@H](C)C(=O)O)c(=O)n2Cc2ccc(C)cc2)cc1Cl` [Compound I-1013] to `CC[C@@H](C)Oc1ccc(/N=c2\[nH]c(=O)n(C[C@H](C)C(=O)O)c(=O)n2Cc2ccc(Cl)cn2)cc1Cl` [Compound I-1626], the IC50 rises from 5 nM to 18 nM (3.6-fold). The first is the more potent here.

`CCc1oc2ccc(/N=c3\[nH]c(=O)n(C[C@H](C)NC(C)=O)c(=O)n3Cc3ccc(Cl)cc3)cc2c1C` [Compound I-1666] and `CCOC(=O)C1(Cn2c(=O)[nH]/c(=N\c3ccc(OCC)c(Cl)c3)n(Cc3ccc(Cl)cc3)c2=O)CC1` [Compound I-0918] are within 1.5-fold of each other in IC50: 10 nM for the first, 14 nM for the second.

Going from `Cc1ccc(Cn2c(=O)n(CC3(CC(=O)O)CC3)c(=O)[nH]/c2=N\c2ccc(OC(C)C)c(C)c2)cc1` [Compound I-0984] to `C#Cc1ccc(Cn2c(=O)n(C[C@H](C)C(=O)OC)c(=O)[nH]/c2=N\c2ccc(OC(C)C)c(C)c2)cc1` [Compound I-0945], the IC50 rises from 21 nM to 173 nM (8.2-fold).

`COC(=O)CCn1c(=O)[nH]/c(=N\c2cc(-c3ccncc3)c[nH]c2=O)n(Cc2ccc(C)cc2)c1=O` [Compound I-1893] showed an IC50 of 178 nM.

Same assay, conditions: human P2X3 receptor, Test Example 1

First: Cc1nsc(Oc2ccc(/N=c3\[nH]c(=O)n(CCCO)c(=O)n3Cc3ccc(F)cc3)cc2)n1 [Compound I-2606]
Second: CCn1c(=O)[nH]/c(=N\c2ccc(Oc3cccc(C(=O)O)n3)cc2)n(Cc2ccc(F)cc2)c1=O [Compound I-2496]
The IC50 of the first is 2.1-fold lower: 14 nM for the first, 30 nM for the second. The first is the more potent here.

Going from `Cc1ccc(Cn2c(=O)n(C[C@H](C)C(=O)O)c(=O)[nH]/c2=N\c2ccc(CC3CC3)c(Cl)c2)cc1` [Compound I-1513] to `COC(=O)[C@@H](C)Cn1c(=O)[nH]/c(=N\c2ccc(C3CC3)c(Cl)c2)n(Cc2ccc(C)cc2)c1=O` [Compound I-1487], the IC50 rises from 10 nM to 106 nM (11-fold).

Going from `O=C(Cn1c(=O)[nH]/c(=N\c2ccc(Oc3ncccn3)cc2)n(Cc2ccc(Cl)cc2)c1=O)NCCO` [Compound I-2688] to `NC(=O)Cn1c(=O)[nH]/c(=N\c2ccc(Oc3ncccn3)cc2)n(Cc2ccc(Cl)cc2)c1=O` [Compound I-2686], the IC50 rises from 18 nM to 36 nM (2-fold). The first is the more potent here.

`CNC(=O)Cn1c(=O)[nH]/c(=N\c2ccc(Oc3ccnnc3)cc2)n(Cc2ccc(Cl)cc2)c1=O` [Compound I-2696] and `CCOC(=O)Cn1c(=O)[nH]/c(=N\c2ccc(Oc3ncccn3)cc2)n(Cc2ccc(Cl)cc2)c1=O` [Compound I-2657] are within 1.5-fold of each other in IC50: 8 nM for the first, 7 nM for the second.

`CCn1c(=O)[nH]/c(=N\c2ccc(Oc3ccc(C(N)=O)cn3)cc2)n(Cc2ccc(C)cc2)c1=O` [Compound I-2398] and `CCn1c(=O)[nH]/c(=N\c2ccc(Oc3cc(C#N)ccn3)cc2)n(Cc2ccc(C)cc2)c1=O` [Compound I-2300] are the same in IC50: 3 nM for the first, 3 nM for the second.

First: Cn1c(=O)[nH]/c(=N\c2ccc(Oc3ccc(C(=O)O)nn3)cc2)n(Cc2ccc(Cl)cc2)c1=O [Compound I-2381]
Second: Cc1ccc(Cn2c(=O)n(C)c(=O)[nH]/c2=N\c2ccc(Oc3cncc(C(=O)O)n3)cc2)cc1 [Compound I-2475]
The IC50 of the first is 4.5-fold higher: 54 nM for the first, 12 nM for the second. The second is the more potent here.

Compared with `CCn1c(=O)[nH]/c(=N\c2ccc3nc(Cl)sc3c2)n(Cc2ccc(Cl)cc2)c1=O` [Compound I-2321], `CCn1c(=O)[nH]/c(=N\c2ccc3nc(OCC(=O)O)sc3c2)n(Cc2ccc(Cl)cc2)c1=O` [Compound I-2326] is 9.8-fold higher in IC50: 11 nM for the first, 108 nM for the second.

First: CCn1c(=O)[nH]/c(=N\c2ccc(Oc3cccc(CCC(=O)OC)c3)cc2)n(Cc2ccc(Cl)cc2)c1=O [Compound I-2225]
Second: COc1cccc(Oc2ccc(/N=c3\[nH]c(=O)n(CC(CO)CO)c(=O)n3Cc3ccc(Cl)cc3)cc2)n1 [Compound I-2641]
The IC50 of the first is 5.1-fold higher: 61 nM for the first, 12 nM for the second. The second is the more potent here.

First: CCn1c(=O)[nH]/c(=N\c2ccc(Oc3ncc(C(N)=O)s3)cc2)n(Cc2ccc(Cl)cc2)c1=O [Compound I-2609]
Second: CCn1c(=O)[nH]/c(=N\c2ccc(Sc3nc[nH]n3)cc2)n(Cc2ccc(Cl)cc2)c1=O [Compound I-2598]
The IC50 of the first is 170-fold lower: 2 nM for the first, 341 nM for the second.

First: CC(=O)Nc1cc(Oc2ccc(/N=c3\[nH]c(=O)[nH]c(=O)n3Cc3ccc(Cl)cc3)cc2)ccn1 [Compound I-2430]
Second: O=c1[nH]/c(=N\c2ccc(Oc3ccsn3)cc2)n(Cc2ccc(Cl)cc2)c(=O)n1CC(O)CO (centres unmarked) [Compound I-2514]
The IC50 of the first is 4.4-fold higher: 48 nM for the first, 11 nM for the second. The second is the more potent here.

First: O=c1[nH]/c(=N\c2ccc(Oc3ccon3)c(F)c2)n(Cc2ccc(Cl)cc2)c(=O)n1C[C@H](O)CO [Compound I-2440]
Second: O=c1[nH]/c(=N\c2ccc(Oc3cccc(F)n3)cc2)n(Cc2ccc(Cl)cc2)c(=O)n1CC(CO)CO [Compound I-2582]
The IC50 of the first is 1.7-fold higher: 5 nM for the first, 3 nM for the second. The second is the more potent here.

Going from `O=c1[nH]/c(=N\c2ccc(Oc3ccon3)cc2)n(Cc2ccc(F)cc2)c(=O)n1CCCOC1CCCCO1` (centres unmarked) [Compound I-2394] to `CNCCCn1c(=O)[nH]/c(=N\c2ccc(OC(C)C)c(F)c2)n(Cc2ccc(Cl)cc2)c1=O` [Compound I-2316], the IC50 rises from 21 nM to 51 nM (2.4-fold).

Going from `CCOC(=O)C1(Cn2c(=O)[nH]/c(=N\c3ccc4nc(CC)sc4c3)n(Cc3ccc(C)cc3)c2=O)CC1` [Compound I-1547] to `COC(=O)[C@@H](C)Cn1c(=O)[nH]/c(=N\c2ccc(CC(C)C)cc2)n(Cc2ccc(C)cc2)c1=O` [Compound I-0860], the IC50 rises from 3 nM to 62 nM (21-fold).

`CCn1c(=O)[nH]/c(=N\c2ccc(Oc3cccc(C(=O)O)n3)cc2)n(C[C@H]2CC[C@H](C)CC2)c1=O` [Compound I-2499] showed an IC50 of 5 nM.
